Data published in patent publication US9949483B2, “Pesticidally active heterocyclic derivatives with sulphur containing substituents” (Syngenta Participations AG, priority 2014, dated 2018).

Legend:
Type in all cases: in vivo
[1] = test system: Euschistus heros (Neotropical Brown Stink Bug); test: Example B3: Activity against Euschistus heros, soybean leaf sprayed; conditions: 120 h, application rate of 200 ppm, N-2 nymphs, 5 days after infestation, read-out: effect in at least one of the two categories (mortality or growth inhibition)
Procedure: Soybean leaf on agar in 24-well microtiter plates were sprayed with aqueous test solutions prepared from 10′000 ppm DMSO stock solutions. After drying the leaf were infested with N-2 nymphs. The samples were assessed for growth inhibition in comparison to untreated samples 5 days after infestation.

[2] = test system: Mysus persicae (Green Peach Aphid); test: Example B4: Activity against Mysus persicae, sunflower leaf discs sprayed; conditions: Myzus persicae, foliar, 144 h, application rate of 200 ppm, aphid population of mixed ages, 6 days after infestation
Procedure: (§1) Sunflower leaf discs were placed on agar in a 24-well microtiter plate and sprayed with aqueous test solutions prepared from 10′000 ppm DMSO stock solutions. After drying, the leaf discs were infested with an aphid population of mixed ages. The samples were assessed for mortality 6 days after infestation.

[3] = test system: Diabrotica balteata (Corn Root Worm); test: Example B2: Activity against Diabrotica balteata, maize sprouts sprayed; conditions: 96 h, application rate of 200 ppm, L2 larvae, 4 days after infestation
Procedure: Maize sprouts, placed on an agar layer in 24-well microtiter plates were treated with aqueous test solutions prepared from 10′000 ppm DMSO stock solutions by spraying. After drying, the plates were infested with L2 larvae (6 to 10 per well). The samples were assessed for mortality 4 days after infestation.

[4] = test system: Spodoptera littoralis (Egyptian Cotton Leaf Worm); test: Example B8: Activity against Spodoptera littoralis, cotton leaf discs sprayed; conditions: foliar, 72 h, application rate of 200 ppm, L1 larvae, 3 days after infestation, read-out: control (at least one of mortality, anti-feedant effect, and growth inhibition)
Procedure: Cotton leaf discs were placed on agar in 24-well microtiter plates and sprayed with aqueous test solutions prepared from 10′000 ppm DMSO stock solutions. After drying the leaf discs were infested with five L1 larvae. The samples were assessed for mortality, anti-feedant effect, and growth inhibition in comparison to untreated samples 3 days after infestation. Control of Spodoptera littoralis by a test sample is when at least one of mortality, anti-feedant effect, and growth inhibition is higher than the untreated sample.

[5] = test system: Plutella xylostella (Diamond Back Moth); test: Example B7: Activity against Plutella xylostella, artificial diet; conditions: 120 h, application rate of 200 ppm, L2 larvae, 5 days after infestation, read-out: effect in at least one of the two categories (mortality or growth inhibition)
Procedure: 24-well microtiter plates with artificial diet were treated with aqueous test solutions prepared from 10′000 ppm DMSO stock solutions by pipetting. After drying, the plates were infested with L2 larvae (10 to 15 per well). The samples were assessed for mortality and growth inhibition in comparison to untreated samples 5 days after infestation.

[6] = test system: Mysus persicae (Green Peach Aphid); test: Example B6: Activity against Mysus persicae, sucrose solution under Parafilm; conditions: Myzus persicae, 120 h; test rate of 12 ppm; mixed with sucrose solution; 5 days after infestation
Procedure: Test compounds from 10′000 ppm DMSO stock solutions were applied by pipette into 24-well microtiter plates and mixed with sucrose solution. The plates were closed with a stretched Parafilm. A plastic stencil with 24 holes was placed onto the plate and infested pea seedlings were placed directly on the Parafilm. The infested plate was closed with a gel blotting paper and another plastic stencil and then turned upside down. The samples were assessed for mortality 5 days after infestation.

[7] = test system: Spodoptera littoralis (Egyptian Cotton Leaf Worm); test: Example B9: Activity against Spodoptera littoralis, lettuce grown on treated agar; conditions: 144 h, test rate of 12.5 ppm, compound mixed with agar, taken up by lettuce roots, 6 days after infestation, read-out: effect in at least one of the three categories (mortality, anti-feedancy, or growth inhibition)
Source text: Test compounds were applied by pipette from 10′000 ppm DMSO stock solutions into 24-well plates and mixed with agar. Lettuce seeds were placed on the agar and the multi well plate was closed by another plate which contains also agar. After 7 days the roots have absorbed the compound and the lettuce has grown into the lid plate. The lettuce leafs were now cut off into the lid plate. Spodoptera eggs were pipetted through a plastic stencil on a humid gel blotting paper and the plate closed with it. The samples were assessed for mortality, anti-feedant effect and growth inhibition in comparison to untreated samples 6 days after infestation.

[8] = test system: Mysus persicae (Green Peach Aphid); test: Example B5: Activity against Mysus persicae, roots of pea seedlings in test solutions; conditions: Myzus persicae, 144 h, test rate of 24 ppm, 6 days
Procedure: Roots of pea seedlings infested with an aphid population of mixed ages were placed directly in the aqueous test solutions prepared from 10′000 DMSO stock solutions. The samples were assessed for mortality 6 days after placing seedlings in test solutions.

[9] = test system: Bemisia tabaci (Cotton White Fly); test: Example B1: Activity against Bemisia tabaci, cotton leaf discs sprayed; conditions: foliar, 144 h, application rate of 200 ppm, adult white flies, 6 days after incubation
Procedure: Cotton leaf discs were placed on agar in 24-well microtiter plates and sprayed with aqueous test solutions prepared from 10′000 ppm DMSO stock solutions. After drying the leaf discs were infested with adult white flies. The samples were checked for mortality 6 days after incubation.

[10] = test system: Thrips tabaci (Onion Thrips); test: Example B11: Activity against Thrips tabaci, feeding/contact activity; conditions: 144 h, application rate of 200 ppm, thrips population of mixed ages, 6 days after infestation
Procedure: as §1, with “in” for “in a”, “plates” for “plate”, “drying” for “drying,”, “a thrips” for “an aphid”

[11] = test system: Tetranychus urticae (Two-Spotted Spider Mite); test: Example B10: Activity against Tetranychus urticae, feeding/contact activity; conditions: 192 h
Procedure: Bean leaf discs on agar in 24-well microtiter plates were sprayed with aqueous test solutions prepared from 10′000 ppm DMSO stock solutions. After drying the leaf discs were infested with a mite population of mixed ages. The samples were assessed for mortality on mixed population (mobile stages) 8 days after infestation.

[12] = test system: Aedes aegypti (Yellow Fever Mosquito); test: whole plant or invertebrate; conditions: 48 h, test rate of 5 ppm, L2 larvae, incubation period of 2 days, read-out: effect in at least one of the two categories (mortality or growth inhibition)
Procedure: 10 to 15 Aedes larvae (L2) together with a nutrition mixture were placed in 96-well microtiter plates. Test compounds were pipetted into the wells. After an incubation period of 2 days insects were assessed for mortality and growth inhibition.

CCS(=O)(=O)c1cc(Br)cnc1-n1cc2cnc(C(F)(F)F)cc2n1 [Compound P8, 2-(5-bromo-3-ethylsulfonyl-2-pyridyl)-6-(trifluoromethyl)pyrazolo[4,3-c]pyridine]
≥ 80%: percent effect (mortality or growth inhibition) at 200 ppm [1] | mortality at 200 ppm [2] | mortality at 200 ppm [3] | mortality at 200 ppm [4] | percent effect (mortality or growth inhibition) at 200 ppm [5]

CCS(=O)(=O)c1cc(C2CC2)cnc1-n1cc2cnc(C(F)(F)F)cc2n1 [Compound P9, 2-(5-cyclopropyl-3-ethylsulfonyl-2-pyridyl)-6-(trifluoromethyl)pyrazolo[4,3-c]pyridine]
≥ 80%: mortality at 200 ppm [3] | mortality at 200 ppm [4]

CCSc1cccnc1-n1cc2cnc(C(F)(F)F)cc2n1 [Compound P3, 2-(3-ethylsulfanyl-2-pyridyl)-6-(trifluoromethyl)pyrazolo[4,3-c]pyridine]
≥ 80%: percent effect (mortality or growth inhibition) at 200 ppm [1] | mortality at 200 ppm [2] | mortality at 12 ppm [6] | mortality at 200 ppm [3] | percent control (mortality, anti-feedancy or growth inhibition) at 12.5 ppm [7] | mortality at 200 ppm [4] | percent effect (mortality or growth inhibition) at 200 ppm [5]

CCS(=O)(=O)c1cccnc1-n1cc2cnc(C(F)(F)F)cc2n1 [Compound P4, 2-(3-ethylsulfonyl-2-pyridyl)-6-(trifluoromethyl)pyrazolo[4,3-c]pyridine]
≥ 80%: percent effect (mortality or growth inhibition) at 200 ppm [1] | mortality at 200 ppm [2] | mortality at 24 ppm [8] | mortality at 200 ppm [3] | percent control (mortality, anti-feedancy or growth inhibition) at 12.5 ppm [7] | mortality at 200 ppm [4] | percent effect (mortality or growth inhibition) at 200 ppm [5]

CCS(=O)(=O)c1ccccc1-n1cc2cnc(C(F)(F)F)cc2n1 [Compound P2, 2-(2-ethylsulfonylphenyl)-6-(trifluoromethyl)pyrazolo[4,3-c]pyridine]
≥ 80%: mortality at 200 ppm [2] | mortality at 200 ppm [9] | mortality at 24 ppm [8] | mortality at 200 ppm [3] | mortality at 200 ppm [4] | percent effect (mortality or growth inhibition) at 200 ppm [5]

CCS(=O)(=O)c1cccnc1-n1cc2nnc(C(F)(F)F)cc2n1 [PP1, 2-(3-ethylsulfonyl-2-pyridyl)-6-(trifluoromethyl)pyrazolo[4,3-c]pyridazine]
≥ 80%: percent effect (mortality or growth inhibition) at 200 ppm [1] | mortality at 200 ppm [2] | mortality at 200 ppm [3] | mortality at 200 ppm [4] | percent effect (mortality or growth inhibition) at 200 ppm [5]

CCS(=O)(=O)c1cc(-c2ccccc2)cnc1-n1cc2cnc(C(F)(F)F)cc2n1 [Compound P10, 2-(3-ethylsulfonyl-5-phenyl-2-pyridyl)-6-(trifluoromethyl)pyrazolo[4,3-c]pyridine]
≥ 80%: mortality at 200 ppm [10] | percent effect (mortality or growth inhibition) at 200 ppm [1] | mortality at 200 ppm [2] | mortality at 200 ppm [3] | mortality at 200 ppm [4] | percent effect (mortality or growth inhibition) at 200 ppm [5]

CCSc1ccccc1-n1cc2cnc(C(F)(F)F)cc2n1 [Compound P1, 2-(2-ethylsulfanylphenyl)-6-(trifluoromethyl)pyrazolo[4,3-c]pyridine]
≥ 80%: percent effect (mortality or growth inhibition) at 200 ppm [1] | mortality at 200 ppm [2] | mortality at 12 ppm [6] | mortality at 200 ppm [11] | percent effect (mortality or growth inhibition) at 5 ppm [12] | mortality at 200 ppm [9] | mortality at 200 ppm [3] | percent control (mortality, anti-feedancy or growth inhibition) at 12.5 ppm [7] | mortality at 200 ppm [4] | percent effect (mortality or growth inhibition) at 200 ppm [5]

CCS(=O)(=O)c1cc(C(F)(F)F)cnc1-n1cc2cnc(C(F)(F)F)cc2n1 [Compound P7, 2-[3-ethylsulfonyl-5-(trifluoromethyl)-2-pyridyl]-6-(trifluoromethyl)pyrazolo[4,3-c]pyridine]
≥ 80%: percent effect (mortality or growth inhibition) at 200 ppm [1] | mortality at 200 ppm [2] | percent effect (mortality or growth inhibition) at 5 ppm [12] | mortality at 200 ppm [3] | percent control (mortality, anti-feedancy or growth inhibition) at 12.5 ppm [7] | mortality at 200 ppm [4] | percent effect (mortality or growth inhibition) at 200 ppm [5]

CCS(=O)(=O)c1cccnc1-n1cc2cnc(Br)cc2n1 [Compound P6, 6-bromo-2-(3-ethylsulfonyl-2-pyridyl)pyrazolo[4,3-c]pyridine]
≥ 80%: mortality at 200 ppm [2] | mortality at 200 ppm [3]
